Laboratory results: patent US20240271133A1, “KRAB-Containing Zinc Finger Protein And Cancer” (ECOLE POLYTECHNIQUE FEDERALE DE LAUSANNE (EPFL), priority 2021, published 2024)

Tested on: U2932 KD cells
Protocol: pLKO.puro shRNA vectors were used for ZNF586, ZNF587 and ZNF417 knock downs. […] The short hairpin RNAs (shRNAs) targeting the sequence ZNF586 (TRCN0000015373 and TRCN0000015376) were obtained from Sigma-Aldrich. Lentiviral vectors production protocols are detailed at http://tronolab.epfl.ch. The cell proliferation after LV transduction was determined using the 3-[4,5-dimethylthiazol-2-yl]-2,5-diphenyltetrazolium bromide (MTT) assay. The cells were transduced at a multiplicity of infection (MOI) of 20 in every experiment.

| Compound | cytotoxic interaction of drug with ZNF587/417 depletion |
| --- | --- |
| Nc1ncn([C@H]2C[C@H](O)[C@@H](CO)O2)c(=O)n1 [decitabine] | cytotoxic synergism |
| C=CC(=O)N1CCC[C@@H](n2nc(-c3ccc(Oc4ccccc4)cc3)c3c(N)ncnc32)C1 [ibrutinib] | cytotoxic synergism |
